Experimental data as given in patent US11198680B2 (BioAxone BioSciences, Inc., priority 2016, dated 2021).
Like-named read-outs stand apart in the source and are kept apart here.

Experiments:
[1] = Brain concentration after IV BA-1049 (R), LC-MS/MS; type: in vivo; details: mouse
Experimental: Mice are dosed either by intravenous (IV) administration or oral (PO) administration via oral gavage.
After IV dosing, brains are collected from 4 mice at each time point: 0.083 hr, 0.5 hr, 2 hr, 6 hr, 12 hr, and 24 hr after dose. Each mouse is euthanized by CO2. The entire brains are removed, weighed, rinsed with PBS, placed in tubes, and snap frozen in liquid nitrogen.
Brain tissue was homogenized in 1 mL/g PBS. Brain homogenates are precipitated by pipetting 200 μL of homogenate into a tube using aseptically cut off 1000 μL pipette tips to prevent clogging.

[2] = test system: intracellular ROCK activity (ppMLC2 T18/S19) in HUVECs; assay: HUVEC ppMLC2 dose-response; type: cell-based, human; details: for EC50: 1 h exposure, read-out: EC50 for reduction of MLC2 diphosphorylation; for maximum reduction of ppMLC2 levels: highest dose tested 1 mM, 1 h
Experimental: Cells were exposed to each dose for 1 h. All experiments were conducted in triplicate and analyzed by 2 independent assessors blinded to the compound and compound concentration.
Cells were subjected to biochemical protein analysis of di-phosphorylated MLC2 (Threonine 18/Serine 19 phosphorylation sites) using SDS-PAGE and immunoblotting. Cells were plated in a 24-well tissue culture plates, coated with 70 μg/ml rat collagen-1 (Corning) and grown for 2-3 days at 37° C./5% CO2 until confluency. […] Drugs were diluted in Medium 200 (Thermo Fisher Scientific) supplemented with 0.1% human serum albumin (HSA, Sigma-Aldrich). After 1 h, cells were lysed with RIPA buffer (Boston Bioproducts; Ashland, Mass.) supplemented with complete protease/phosphatase inhibitors (HALT, Thermo Fisher Scientific), reduced, and denatured with Laemmli sample buffer (BioRad)/beta-mercaptoethanol. Denatured samples were electrophoresed in reducing 10% Bis-Tris-PA gels (Novex) and then transferred onto 0.25 μm PVDF membranes (EMD Millipore). Membranes were incubated with 4% bovine serum albumin solution to block unspecific antibody binding sites and then immunolabeled for ppMLC2 T18/S19 (1:500, Cell Signaling) and glyceraldehyde 3-phosphate dehydrogenase loading control (GAPDH, 1:10,000; Abcam). Protein levels were detected using a chemiluminescence substrate (Super Signal West, ThermoFisher) and were captured with FluoroChem SP imaging system. Chemiluminescence of ppMLC2 and GAPDH was measured by densitometric analysis. ppMLC2 signal was normalized against GAPDH signal plotted as percentage of no treatment control (0 μM). EC50 values were determined by dose-response analysis using GraphPad software.

[3] = target: ALK (Homo sapiens (Human), UniProt Q9UM73); assay: KINOMEscan kinome screen; details: percent of negative control binding
Description: (§1) The KINOMEscan™ screening platform (DiscoverX, Fremont, Calif.) employs a novel active site-directed competition binding assay to quantitatively measure interactions between test compounds and more than 450 human kinases and disease relevant mutant variants. […] Compounds that bind the kinase active site and directly (sterically) or indirectly (allosterically) prevent kinase binding to the immobilized ligand, will reduce the amount of kinase captured on the solid support. […] Screening “hits” are identified by measuring the amount of kinase captured in test versus control samples by using a quantitative, precise and ultra-sensitive qPCR method that detects the associated DNA label.
(§2) Kinase-tagged T7 phage strains were grown in parallel in 24-well blocks in an E. coli host derived from the BL21 strain. E. coli were grown to log-phase and infected with T7 phage from a frozen stock (multiplicity of infection=0.4) and incubated with shaking at 32° C. until lysis (90-150 minutes). The lysates were centrifuged (6,000×g) and filtered (0.2 μm) to remove cell debris. The remaining kinases were produced in HEK-293 cells and subsequently tagged with DNA for qPCR detection (Wein, et al. (2016) Nat. Comm. 7). […] Test compounds were prepared as 40× stocks in 100% DMSO and directly diluted into the assay. All reactions were performed in polypropylene 384-well plates in a final volume of 0.02 ml.

[4] = target: FGFR4 (Homo sapiens (Human), UniProt P22455); assay: KINOMEscan kinome screen; details: percent of negative control binding
Description: as §1, §2

[5] = target: IRAK3 (Homo sapiens (Human), UniProt Q9Y616); assay: KINOMEscan kinome screen; details: percent of negative control binding
Sequence of IRAK3 (Q9Y616 whole entry): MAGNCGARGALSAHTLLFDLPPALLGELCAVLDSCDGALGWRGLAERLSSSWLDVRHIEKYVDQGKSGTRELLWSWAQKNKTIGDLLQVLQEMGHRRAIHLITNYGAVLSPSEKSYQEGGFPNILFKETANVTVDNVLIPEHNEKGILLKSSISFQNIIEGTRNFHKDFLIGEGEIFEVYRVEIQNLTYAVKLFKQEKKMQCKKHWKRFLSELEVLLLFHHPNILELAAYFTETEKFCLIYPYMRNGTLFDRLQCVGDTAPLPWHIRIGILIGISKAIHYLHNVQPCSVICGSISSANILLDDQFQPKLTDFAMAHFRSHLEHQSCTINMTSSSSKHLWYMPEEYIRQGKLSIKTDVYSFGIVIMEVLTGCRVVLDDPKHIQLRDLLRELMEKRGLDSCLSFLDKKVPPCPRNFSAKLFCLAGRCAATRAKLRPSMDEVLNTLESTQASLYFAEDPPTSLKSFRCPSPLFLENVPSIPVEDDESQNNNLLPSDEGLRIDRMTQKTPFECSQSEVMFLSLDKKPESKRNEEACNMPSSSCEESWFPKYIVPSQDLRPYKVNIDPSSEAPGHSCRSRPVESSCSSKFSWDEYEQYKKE
Description: as §1, §2

[6] = target: MARK1 (Homo sapiens (Human), UniProt Q9P0L2); assay: KINOMEscan kinome screen; details: percent of negative control binding
Sequence of MARK1 (Q9P0L2 whole entry): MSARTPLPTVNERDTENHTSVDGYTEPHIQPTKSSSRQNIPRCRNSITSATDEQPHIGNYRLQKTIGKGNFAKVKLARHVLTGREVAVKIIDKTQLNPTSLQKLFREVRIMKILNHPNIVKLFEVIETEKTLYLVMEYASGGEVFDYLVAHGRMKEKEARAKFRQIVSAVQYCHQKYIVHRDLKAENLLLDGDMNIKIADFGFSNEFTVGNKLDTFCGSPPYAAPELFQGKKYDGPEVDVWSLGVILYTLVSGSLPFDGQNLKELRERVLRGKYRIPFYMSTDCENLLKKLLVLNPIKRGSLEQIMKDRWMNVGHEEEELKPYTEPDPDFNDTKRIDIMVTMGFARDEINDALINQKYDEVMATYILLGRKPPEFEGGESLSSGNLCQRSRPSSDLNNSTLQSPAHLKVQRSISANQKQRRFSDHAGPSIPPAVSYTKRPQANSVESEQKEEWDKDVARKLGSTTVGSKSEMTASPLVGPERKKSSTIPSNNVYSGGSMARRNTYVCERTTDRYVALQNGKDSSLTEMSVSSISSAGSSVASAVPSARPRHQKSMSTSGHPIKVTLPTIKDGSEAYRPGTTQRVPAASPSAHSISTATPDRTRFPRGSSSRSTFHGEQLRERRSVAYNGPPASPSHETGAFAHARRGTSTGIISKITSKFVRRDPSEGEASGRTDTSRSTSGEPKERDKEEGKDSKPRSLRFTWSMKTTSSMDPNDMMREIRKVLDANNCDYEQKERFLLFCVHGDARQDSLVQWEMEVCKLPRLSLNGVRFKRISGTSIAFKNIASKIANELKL
Description: as §1, §2

[7] = target: MARK2 (Homo sapiens (Human), UniProt Q7KZI7); assay: KINOMEscan kinome screen; details: percent of negative control binding
Description: as §1, §2

[8] = target: MARK3 (Homo sapiens (Human), UniProt P27448); assay: KINOMEscan kinome screen; details: percent of negative control binding
Sequence of MARK3 (P27448 whole entry): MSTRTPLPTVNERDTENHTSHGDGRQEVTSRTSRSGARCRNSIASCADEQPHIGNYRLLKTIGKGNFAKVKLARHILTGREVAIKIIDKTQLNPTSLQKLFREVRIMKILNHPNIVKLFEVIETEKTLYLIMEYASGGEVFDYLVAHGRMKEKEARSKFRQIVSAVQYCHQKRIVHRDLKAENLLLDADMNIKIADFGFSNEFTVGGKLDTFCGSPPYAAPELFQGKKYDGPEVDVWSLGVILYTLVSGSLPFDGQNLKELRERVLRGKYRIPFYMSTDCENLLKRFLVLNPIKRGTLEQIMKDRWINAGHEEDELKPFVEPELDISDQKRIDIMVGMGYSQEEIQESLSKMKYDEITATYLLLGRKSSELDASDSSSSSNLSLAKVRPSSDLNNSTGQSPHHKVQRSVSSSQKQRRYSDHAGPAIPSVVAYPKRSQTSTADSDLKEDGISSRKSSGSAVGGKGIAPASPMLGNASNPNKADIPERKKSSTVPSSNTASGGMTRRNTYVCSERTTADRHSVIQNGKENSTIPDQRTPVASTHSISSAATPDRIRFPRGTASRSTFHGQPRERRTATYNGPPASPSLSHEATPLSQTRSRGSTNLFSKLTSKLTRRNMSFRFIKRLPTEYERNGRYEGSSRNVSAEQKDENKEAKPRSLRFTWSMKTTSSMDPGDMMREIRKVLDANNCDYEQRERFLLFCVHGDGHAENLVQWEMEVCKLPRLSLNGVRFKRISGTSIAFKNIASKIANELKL
Description: as §1, §2

[9] = target: MARK4 (Homo sapiens (Human), UniProt Q96L34); assay: KINOMEscan kinome screen; details: percent of negative control binding
Sequence of MARK4 (Q96L34 whole entry): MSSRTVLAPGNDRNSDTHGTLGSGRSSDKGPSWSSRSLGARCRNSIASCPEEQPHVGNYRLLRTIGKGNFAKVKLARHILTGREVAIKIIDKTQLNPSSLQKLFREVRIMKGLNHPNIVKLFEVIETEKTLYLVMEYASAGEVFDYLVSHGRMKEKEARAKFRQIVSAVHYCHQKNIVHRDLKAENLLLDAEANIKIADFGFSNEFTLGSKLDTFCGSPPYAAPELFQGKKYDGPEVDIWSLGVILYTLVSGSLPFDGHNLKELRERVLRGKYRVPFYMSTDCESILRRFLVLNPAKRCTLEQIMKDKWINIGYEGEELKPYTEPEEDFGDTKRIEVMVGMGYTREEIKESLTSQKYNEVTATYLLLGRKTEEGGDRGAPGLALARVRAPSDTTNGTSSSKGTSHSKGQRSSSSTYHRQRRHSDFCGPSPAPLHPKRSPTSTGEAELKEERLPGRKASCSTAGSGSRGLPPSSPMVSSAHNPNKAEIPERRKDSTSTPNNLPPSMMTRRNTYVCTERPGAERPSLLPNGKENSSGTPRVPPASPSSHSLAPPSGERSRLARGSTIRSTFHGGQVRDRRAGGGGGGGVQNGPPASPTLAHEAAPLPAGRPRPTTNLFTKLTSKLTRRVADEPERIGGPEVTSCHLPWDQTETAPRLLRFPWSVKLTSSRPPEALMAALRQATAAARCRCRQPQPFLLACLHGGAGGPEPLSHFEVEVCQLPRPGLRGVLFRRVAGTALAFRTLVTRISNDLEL
Description: as §1, §2

[10] = target: MEK1 (Homo sapiens (Human), UniProt Q02750); assay: KINOMEscan kinome screen; details: percent of negative control binding
Sequence of MEK1 (Q02750 whole entry): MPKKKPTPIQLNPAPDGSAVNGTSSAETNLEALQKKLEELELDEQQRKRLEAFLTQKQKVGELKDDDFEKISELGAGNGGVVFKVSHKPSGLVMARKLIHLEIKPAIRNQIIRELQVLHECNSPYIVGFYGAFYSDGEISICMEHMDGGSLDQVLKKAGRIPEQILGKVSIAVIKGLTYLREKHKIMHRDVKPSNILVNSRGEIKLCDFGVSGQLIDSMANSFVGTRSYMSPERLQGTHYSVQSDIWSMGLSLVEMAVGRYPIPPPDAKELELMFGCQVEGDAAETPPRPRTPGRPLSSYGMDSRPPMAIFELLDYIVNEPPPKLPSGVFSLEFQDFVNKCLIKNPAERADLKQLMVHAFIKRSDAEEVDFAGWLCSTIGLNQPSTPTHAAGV
Description: as §1, §2

[11] = target: MEK2 (Homo sapiens (Human), UniProt P36507); assay: KINOMEscan kinome screen; details: percent of negative control binding
Sequence of MEK2 (P36507 whole entry): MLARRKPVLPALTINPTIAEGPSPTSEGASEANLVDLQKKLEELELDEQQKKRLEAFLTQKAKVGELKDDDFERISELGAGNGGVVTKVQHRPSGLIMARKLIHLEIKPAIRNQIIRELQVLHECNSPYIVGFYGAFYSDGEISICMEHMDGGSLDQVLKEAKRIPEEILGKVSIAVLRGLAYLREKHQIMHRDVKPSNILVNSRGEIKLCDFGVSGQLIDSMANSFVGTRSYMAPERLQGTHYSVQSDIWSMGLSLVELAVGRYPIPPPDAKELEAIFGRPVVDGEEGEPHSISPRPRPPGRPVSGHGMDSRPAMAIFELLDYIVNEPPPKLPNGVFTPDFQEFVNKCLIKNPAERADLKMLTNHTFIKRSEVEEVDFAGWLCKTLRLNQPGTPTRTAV
Description: as §1, §2

[12] = target: PRKCQ (Homo sapiens (Human), UniProt Q04759); assay: KINOMEscan kinome screen; details: percent of negative control binding
Sequence of PRKCQ (Q04759 whole entry): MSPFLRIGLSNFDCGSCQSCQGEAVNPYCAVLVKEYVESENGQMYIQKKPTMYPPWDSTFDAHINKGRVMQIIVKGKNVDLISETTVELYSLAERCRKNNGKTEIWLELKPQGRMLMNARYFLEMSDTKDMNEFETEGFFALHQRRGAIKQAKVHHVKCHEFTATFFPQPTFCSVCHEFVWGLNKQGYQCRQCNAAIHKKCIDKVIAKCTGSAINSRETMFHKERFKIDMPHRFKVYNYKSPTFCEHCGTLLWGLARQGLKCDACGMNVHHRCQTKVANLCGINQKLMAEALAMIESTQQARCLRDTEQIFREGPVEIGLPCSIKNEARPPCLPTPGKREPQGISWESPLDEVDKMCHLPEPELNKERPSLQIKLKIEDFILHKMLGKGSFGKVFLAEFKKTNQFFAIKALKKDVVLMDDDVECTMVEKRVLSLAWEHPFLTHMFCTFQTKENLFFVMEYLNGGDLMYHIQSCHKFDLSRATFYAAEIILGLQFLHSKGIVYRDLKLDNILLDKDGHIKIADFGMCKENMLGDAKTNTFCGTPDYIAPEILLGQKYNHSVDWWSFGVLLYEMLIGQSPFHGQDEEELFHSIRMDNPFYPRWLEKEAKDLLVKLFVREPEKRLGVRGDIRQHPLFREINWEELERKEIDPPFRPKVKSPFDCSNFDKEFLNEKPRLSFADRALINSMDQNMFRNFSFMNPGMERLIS
Description: as §1, §2

[13] = target: SLK (Homo sapiens (Human), UniProt Q9H2G2); assay: KINOMEscan kinome screen; details: percent of negative control binding
Description: as §1, §2

[14] = target: NET (norepinephrine transporter) (Homo sapiens (Human), UniProt P23975); assay: SAFETYscan neurotransmitter transporter activity; type: cell-based
Experimental: (§3) The SAFETYscan™ (DiscoverX) is used for rapid testing of any compound against a panel that includes well-known membrane proteins of importance for drug development such as selected voltage-gated ion channels, G-protein coupled receptors, neurotransmitter transporters and also a selected group of purified cellular enzymes.
(§4) Cell lines engineered to express individual transmembrane receptor proteins such as the muscarinic acetylcholine receptor or the dopamine D1 receptor were grown in culture in their standard growth medium until reaching confluence. […] The experiment also contains controls for comparison including known agonists and antagonists of the targeted membrane proteins.

[15] = target: SERT (serotonin transporter) (Homo sapiens (Human), UniProt P31645); assay: SAFETYscan neurotransmitter transporter activity; type: cell-based
Experimental: as §3, §4

[16] = SAFETYscan off-target panel, all targets; details: 10 μM; except 5-HT2b-receptor
Experimental: as §3, §4
For assays using purified enzymes, an enzyme assay is set up in standard reaction buffer and necessary indicators for activity such as co-factors, buffers and synthetic substrates. […] As positive controls, a binding assay using Rho kinase (ROCK) was included in the panel. Other targets in the panel included G-protein coupled receptors, nuclear hormone receptors, intracellular non-kinase enzymes, ion channels, and neurotransmitter transporters. The specific targets were chosen because of their previous known associations with being the source of problematic off-target effects in cellular or whole animal studies.

[17] = target: ROCK1 (Homo sapiens (Human), UniProt Q13464); assay: biochemical
Experimental: The assay is performed by combining the DNA-tagged kinase, immobilized ligand, and a test compound. The ability of the test compound to compete with the immobilized ligand is measured via quantitative PCR of the DNA tag.
The highest concentration tested was 30 μM.

Compound	maximum reduction of ppMLC2 levels [2] [%]	% Negative Binding, ALK [3] [%]	% Negative Binding, FGFR4 [4] [%]	% Negative Binding, IRAK3 [5] [%]	% Negative Binding, MARK1 [6] [%]	% Negative Binding, MARK2 [7] [%]	% Negative Binding, MARK3 [8] [%]	% Negative Binding, MARK4 [9] [%]	% Negative Binding, MEK1 [10] [%]	% Negative Binding, MEK2 [11] [%]	% Negative Binding, PRKCQ [12] [%]	% Negative Binding, SLK [13] [%]	further results
C[C@@H](N)C1CCN(S(=O)(=O)c2cccc3cnccc23)CC1 [BA-1049 (R)]	89	94	100	92	67	100	100	94	99	99	74	70	time detectable in brain after administration ([1]; 5 mg/kg BA-1049 (R) IV): at least 24 hr; EC50 ([2]; Homo sapiens, HUVEC): 3830 nM; inhibition at 10 µM [14]: 12%; inhibition at 10 µM ([15]; read-out: % Inhibition of Neurotransmitter Transporter Activity, SERT): 9%; activity against targets in the total SAFETYscan [16]: no activity against any of the targets in the total SAFETYscan™; Kd ([17]; ROCK1 KD, average of duplicate determinations, Table 5): 99 nM; Kd ([17]; ROCK1 Kd, Table 1): 110 nM
C[C@@H](N)C1CCN(S(=O)(=O)c2cccc3c(=O)[nH]ccc23)CC1 [1-hydroxy-BA-1049 (R)]	94	81	100	96	69	100	81	92	100	97	66	100	time detectable in brain after administration ([1]; in vivo, iv, 5 mg/kg): < 12 h; EC50 [2]: 449 nM; % Inhibition of Neurotransmitter Transporter Activity, NET ([14]; 10 μM): 11%; % Inhibition of Neurotransmitter Transporter Activity, SERT ([15]; 10 μM): 14%
